Tested on: patients with advanced solid tumors
Experiment: Phase I trial: safety, tolerability, DLT, MTD (CTCAE v4.0)
Assay type: in vivo
Excerpt: Eligible patients had at least one measurable lesion per RECIST v 1.1, Eastern Cooperative Oncology Group (ECOG) performance status of 0 or 1, and adequate hematological, renal, cardiac and hepatic functions. The primary objectives were to assess safety and tolerability as well as to determine the MTD, DLT, and dose recommended for further study. The secondary objectives were to assess the PK and preliminary efficacy of CT053PTSA.
An initial accelerated titration design was used in the 15 and 30 mg QD cohorts, and the “3+3” schema was used starting in the 60 mg QD cohort. […] The study protocol was approved by an institutional review board at Sun Yat-sen University Cancer Center. Written informed consent was obtained from all the patients before enrollment.
Descriptive statistics of safety are presented per CTCAE v4.0. Subjects who received at least one dose of CT053PTSA were considered eligible to be evaluated and included in safety analyses. […] According to the RECIST 1.1 criteria, imaging examinations were performed at each specified time point in the protocol. The antitumor activity was measured by RECIST1.1.

With `Cc1c(C(=O)Nc2ccc(Oc3ccnc4cc(OCC(C)(C)O)ccc34)c(F)c2)c(=O)n(-c2ccccc2)n1C` [CT053PTSA] the “Nausea, All” value (30mg (n = 1)) was 0 n (%), the “Nausea, ≥ G3” value (30mg (n = 1)) was 0 n (%) and the “Oropharyngeal pain, All” value (30mg (n = 1)) was 0 n (%). The “Oropharyngeal pain, ≥ G3” value (30mg (n = 1)) was 0 n (%), the “Pain, All” value (30mg (n = 1)) was 0 n (%) and the “Pain, ≥ G3” value (30mg (n = 1)) was 0 n (%). The “Palmar-plantar erythrodysaesthesia syndrome, All” value (30mg (n = 1)) was 0 n (%), the “Palmar-plantar erythrodysaesthesia syndrome, ≥ G3” value (30mg (n = 1)) was 0 n (%) and the “Platelet count decreased, All” value (30mg (n = 1)) was 0 n (%). The “Platelet count decreased, ≥ G3” value (30mg (n = 1)) was 0 n (%), the “Proteinuria, All” value (30mg (n = 1)) was 0 n (%) and the “Proteinuria, ≥ G3” value (30mg (n = 1)) was 0 n (%). The “Pyrexia, All” value (30mg (n = 1)) was 0 n (%), the “Pyrexia, ≥ G3” value (30mg (n = 1)) was 0 n (%) and the “Sinus bradycardia, All” value (30mg (n = 1)) was 0 n (%). The “Sinus bradycardia, ≥ G3” value (30mg (n = 1)) was 0 n (%), the “Stomatitis, All” value (30mg (n = 1)) was 0 n (%) and the “Stomatitis, ≥ G3” value (30mg (n = 1)) was 0 n (%). The “Vomiting, All” value (30mg (n = 1)) was 0 n (%), the “Vomiting, ≥ G3” value (30mg (n = 1)) was 0 n (%) and the “leukopenia, All” value (30mg (n = 1)) was 0 n (%). The “leukopenia, ≥ G3” value (30mg (n = 1)) was 0 n (%), the “neutropenia, All” value (30mg (n = 1)) was 0 n (%) and the “neutropenia, ≥ G3” value (30mg (n = 1)) was 0 n (%). The “transaminase elevation, All” value (30mg (n = 1)) was 0 n (%), the “transaminase elevation, ≥ G3” value (30mg (n = 1)) was 0 n (%) and the “Anaemia, All” value (60mg (n = 6)) was 0 n (%). For the same compound, the “Anaemia, ≥ G3” value (60mg (n = 6)) was 0 n (%), the “Blood chloride decreased, All” value (60mg (n = 6)) was 0 n (%) and the “Blood chloride decreased, ≥ G3” value (60mg (n = 6)) was 0 n (%). For the same compound, the “Blood creatinine increased, All” value (60mg (n = 6)) was 0 n (%), the “Blood creatinine increased, ≥ G3” value (60mg (n = 6)) was 0 n (%) and the “Blood potassium decreased, All” value (60mg (n = 6)) was 0 n (%). The “Blood potassium decreased, ≥ G3” value (60mg (n = 6)) was 0 n (%), the “Blood sodium decreased, All” value (60mg (n = 6)) was 0 n (%) and the “Blood sodium decreased, ≥ G3” value (60mg (n = 6)) was 0 n (%). The “Blood uric acid increased, All” value (60mg (n = 6)) was 0 n (%), the “Blood uric acid increased, ≥ G3” value (60mg (n = 6)) was 0 n (%) and the “Decreased appetite, All” value (60mg (n = 6)) was 0 n (%). The “Decreased appetite, ≥ G3” value (60mg (n = 6)) was 0 n (%), the “Diarrhea, All” value (60mg (n = 6)) was 0 n (%) and the “Diarrhea, ≥ G3” value (60mg (n = 6)) was 0 n (%). For the same compound, the “Dizziness, All” value (60mg (n = 6)) was 0 n (%), the “Dizziness, ≥ G3” value (60mg (n = 6)) was 0 n (%) and the “Dry mouth, All” value (60mg (n = 6)) was 0 n (%). For the same compound, the “Dry mouth, ≥ G3” value (60mg (n = 6)) was 0 n (%), the “Electrocardiogram QT prolonged, All” value (60mg (n = 6)) was 1 (16.7) n (%) and the “Electrocardiogram QT prolonged, ≥ G3” value (60mg (n = 6)) was 0 n (%). For the same compound, the “Electrolyte imbalance, All” value (60mg (n = 6)) was 0 n (%), the “Electrolyte imbalance, ≥ G3” value (60mg (n = 6)) was 0 n (%) and the “Hemoglobin decreased, All” value (60mg (n = 6)) was 0 n (%). For the same compound, the “Hemoglobin decreased, ≥ G3” value (60mg (n = 6)) was 0 n (%), the “Hypertension, All” value (60mg (n = 6)) was 0 n (%) and the “Hypertension, ≥ G3” value (60mg (n = 6)) was 0 n (%). For the same compound, the “Hyponatremia, All” value (60mg (n = 6)) was 0 n (%), the “Hyponatremia, ≥ G3” value (60mg (n = 6)) was 0 n (%) and the “Hypoparathyroidism, All” value (60mg (n = 6)) was 0 n (%). For the same compound, the “Hypoparathyroidism, ≥ G3” value (60mg (n = 6)) was 0 n (%), the “Mouth ulceration, All” value (60mg (n = 6)) was 0 n (%) and the “Mouth ulceration, ≥ G3” value (60mg (n = 6)) was 0 n (%). The “Nausea, All” value (60mg (n = 6)) was 0 n (%), the “Nausea, ≥ G3” value (60mg (n = 6)) was 0 n (%) and the “Oropharyngeal pain, All” value (60mg (n = 6)) was 0 n (%). For the same compound, the “Oropharyngeal pain, ≥ G3” value (60mg (n = 6)) was 0 n (%), the “Pain, All” value (60mg (n = 6)) was 0 n (%) and the “Pain, ≥ G3” value (60mg (n = 6)) was 0 n (%). For the same compound, the “Palmar-plantar erythrodysaesthesia syndrome, All” value (60mg (n = 6)) was 0 n (%), the “Palmar-plantar erythrodysaesthesia syndrome, ≥ G3” value (60mg (n = 6)) was 0 n (%) and the “Platelet count decreased, All” value (60mg (n = 6)) was 1 (16.7) n (%). The “Platelet count decreased, ≥ G3” value (60mg (n = 6)) was 0 n (%), the “Proteinuria, All” value (60mg (n = 6)) was 0 n (%) and the “Proteinuria, ≥ G3” value (60mg (n = 6)) was 0 n (%). For the same compound, the “Pyrexia, All” value (60mg (n = 6)) was 0 n (%), the “Pyrexia, ≥ G3” value (60mg (n = 6)) was 0 n (%) and the “Sinus bradycardia, All” value (60mg (n = 6)) was 0 n (%). The “Sinus bradycardia, ≥ G3” value (60mg (n = 6)) was 0 n (%), the “Stomatitis, All” value (60mg (n = 6)) was 0 n (%) and the “Stomatitis, ≥ G3” value (60mg (n = 6)) was 0 n (%). For the same compound, the “Vomiting, All” value (60mg (n = 6)) was 0 n (%), the “Vomiting, ≥ G3” value (60mg (n = 6)) was 0 n (%) and the “leukopenia, All” value (60mg (n = 6)) was 1 (16.7) n (%). For the same compound, the “leukopenia, ≥ G3” value (60mg (n = 6)) was 0 n (%), the “neutropenia, All” value (60mg (n = 6)) was 1 (16.7) n (%) and the “neutropenia, ≥ G3” value (60mg (n = 6)) was 0 n (%). The “transaminase elevation, All” value (60mg (n = 6)) was 3 (50) n (%), the “transaminase elevation, ≥ G3” value (60mg (n = 6)) was 0 n (%) and the “Anaemia, All” value (100mg (n = 7)) was 1 (14.3) n (%). The “Anaemia, ≥ G3” value (100mg (n = 7)) was 0 n (%), the “Blood chloride decreased, All” value (100mg (n = 7)) was 1 (14.3) n (%) and the “Blood chloride decreased, ≥ G3” value (100mg (n = 7)) was 0 n (%). For the same compound, the “Blood creatinine increased, All” value (100mg (n = 7)) was 0 n (%), the “Blood creatinine increased, ≥ G3” value (100mg (n = 7)) was 0 n (%) and the “Blood potassium decreased, All” value (100mg (n = 7)) was 0 n (%). For the same compound, the “Blood potassium decreased, ≥ G3” value (100mg (n = 7)) was 0 n (%) and the “Blood sodium decreased, All” value (100mg (n = 7)) was 0 n (%).

From PMC9632963, “Preclinical characterization and phase I clinical trial of CT053PTSA targets MET, AXL, and VEGFR2 in patients with advanced solid tumors” (Frontiers in Immunology, 2022)
